In US20050277660A1, “Novel tetrahydroquinoline derivatives” (priority 2002, published 2005):

Experiments:
[1] = system: Orchiectomized (ORX) Rats; assay: Effect on prostate, femoral bone mineral density and levator ani muscle in ORX rats, subcutaneous (Test Example 3); type: in vivo, rat; conditions: 4 weeks; for Femoral bone mineral density / Levator ani muscle weight / Prostate weight: 5 days per week, Mean ± SD; for Femoral bone mineral density: DEXA, right femur
Text: (§1) Effect on Prostate, Femoral Bone Mineral Density, and Levator Ani Muscle in Orchiectomized (ORX) Rats
(§2) Testes were removed from 12-week-old male SD rats. […] The compounds of the Examples and the DHT were each dissolved in dimethyl sulfoxide, and then diluted 10-fold with olive oil. The resulting solution of each concentration was used in the test. In an ORX control group, dimethyl sulfoxide diluted 10-fold with olive oil was used for the test.

[2] = molecular target: T1, Rat Androgen Receptors (Rat AR) (Rattus norvegicus, UniProt P15207); assay: Test for competitive binding to rat androgen receptors (Test Example 1); conditions: 100×(IC50 of bicalutamide)/(IC50 of compound); bicalutamide taken as 100; 3H-testosterone, rat prostate AR fraction
T1 construct: from tissue; host or cells: prostate of orchiectomized male SD rats (100,000 x g supernatant of the homogenate)
T1 sequence (P15207 1-902): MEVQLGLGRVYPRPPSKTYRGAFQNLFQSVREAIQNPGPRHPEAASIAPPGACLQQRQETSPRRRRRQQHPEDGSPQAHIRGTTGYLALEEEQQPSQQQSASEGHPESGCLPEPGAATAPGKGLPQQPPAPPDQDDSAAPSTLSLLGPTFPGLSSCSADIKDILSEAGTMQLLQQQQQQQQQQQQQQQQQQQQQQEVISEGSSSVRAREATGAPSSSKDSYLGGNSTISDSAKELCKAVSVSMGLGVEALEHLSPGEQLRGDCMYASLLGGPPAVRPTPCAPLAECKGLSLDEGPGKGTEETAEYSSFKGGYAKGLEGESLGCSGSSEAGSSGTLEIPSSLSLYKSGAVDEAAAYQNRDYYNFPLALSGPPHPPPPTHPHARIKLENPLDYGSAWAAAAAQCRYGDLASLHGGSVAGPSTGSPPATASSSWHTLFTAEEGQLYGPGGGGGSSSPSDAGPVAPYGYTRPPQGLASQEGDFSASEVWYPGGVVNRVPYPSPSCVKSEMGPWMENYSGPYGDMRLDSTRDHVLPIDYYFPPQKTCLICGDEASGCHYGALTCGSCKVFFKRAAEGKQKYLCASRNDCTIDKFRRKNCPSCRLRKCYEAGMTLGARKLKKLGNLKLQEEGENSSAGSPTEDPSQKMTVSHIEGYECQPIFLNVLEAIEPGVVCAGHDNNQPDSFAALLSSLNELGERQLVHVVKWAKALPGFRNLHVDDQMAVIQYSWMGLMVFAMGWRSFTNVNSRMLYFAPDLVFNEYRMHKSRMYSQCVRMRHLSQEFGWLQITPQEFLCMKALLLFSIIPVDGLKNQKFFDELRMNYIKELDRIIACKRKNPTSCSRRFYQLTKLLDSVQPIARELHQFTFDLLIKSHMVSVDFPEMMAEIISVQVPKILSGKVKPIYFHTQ
Procedure: Test for Competitive Binding to Rat Androgen Receptors (Rat AR)
Preparation of rat AR fraction: Prostates were harvested into ice-cooled ET buffer (10 mM Tris, 1 mM EDTA, 5 mM DTT, 10 mM sodium molybdate, pH 7.4) 3 days after orchiectomy in 11-week-old male SD rats. The prostate was finely cut, and ET buffer was added, whereafter the mixture was homogenized using a homogenizer. The homogenate was ultracentrifuged (100,000×g, 60 min, 4° C.), and the supernatant was used as a rat AR fraction (hereinafter referred to as ARF).
Binding test: ^3H-testosterone (hereinafter referred to as ^3H-T) was diluted with ET buffer. Dihydrotestosterone (DHT) was prepared so as to have a concentration (final concentration 1 μM) 400 times the maximum concentration of ^3H-T (2.5 nM). The ^3H-T solution was added to a 1.5 ml tube containing DHT, no DHT, or various concentrations of a test compound. Further, 200 μg ARF was added to adjust the final volume to 100 μl. The mixture was incubated for 2 hours at 4° C., and then 300 μl of a 0.05% dextran T70-1.0% activated carbon solution was added. The mixture was further incubated for 15 minutes in ice to remove the free ^3H-T by adsorption. […] The mixture was stirred, allowed to stand, and measured for ^3H radioactivity with a liquid scintillation counter.

[3] = system: Orchiectomized (ORX) Rats; assay: Effect of oral administration on prostate, femoral bone mineral density and levator ani muscle in ORX rats (Test Example 4); type: in vivo, rat; conditions: 30 mg/kg orally twice daily, 4 weeks
Procedure: Effect of the Oral Administration on Prostate, Femoral Bone Mineral Density, and Levator Ani Muscle in Orchiectomized (ORX) Rats
Testes were removed from 12-week-old male SD rats. From the following day onward, the compound of Example 16 (30 mg/5 ml/kg) was orally administered twice daily for 4 consecutive weeks on 7 days per week. The test compound was suspended in a 0.5% methylcellulose solution as a solvent, and used in the test. In an ORX control group, a 0.5% methylcellulose solution (5 ml/kg) was administered. The rats, which had not been orchiectomized, but had been subjected to laparotomy, followed by closure of the abdomen, were used as a sham control group. On the next day after final administration, the wet weights of the ventral prostate and the levator ani muscle were measured, and the bone mineral density of the right femur was measured by the DEXA method (dual energy X-ray absorptiometry), to evaluate the in vivo effect of the compound of Example 16.

[4] = system: Orchiectomized (ORX) Rats; assay: Effect on prostate, femoral bone mineral density and levator ani muscle in ORX rats, subcutaneous (Test Example 2); type: in vivo, rat; conditions: 4 weeks; for Femoral bone mineral density / Levator ani muscle weight / Prostate weight: 5 days per week, Mean ± SD; for Femoral bone mineral density: DEXA, right femur
Text: as §1
as §2, with “compound” for “compounds”, “Example” for “Examples”

CC(C)(CNC(=O)c1ccc(OCC(F)(F)F)cc1)[C@H]1Nc2ccc(C#N)cc2[C@H]2CCC[C@H]21 (relative stereo) [Example 8, (3aR*,4S*,9bS*)-N-[2-(8-Cyano-2,3,3a,4,5,9b-hexahydro-1H-cyclopenta[c]quinolin-4-yl)-2-methylpropyl]-4-(2,2,2-trifluoroethoxy)benzamide]
Femoral bone mineral density ([1]; 30 mg/kg s.c. once daily): 136 ± 3 mg/cm^2
Levator ani muscle weight ([1]; 30 mg/kg s.c. once daily): 58 ± 6 mg/100 g body weight
Prostate weight ([1]; 30 mg/kg s.c. once daily): 62 ± 10 mg/100 g body weight
weight of the prostate relative to that in the sham control group ([1]; 30 mg/kg s.c.): about 50%

CC(C)(CNC(=O)c1ccc(NC=O)cc1)[C@H]1Nc2ccc(C#N)cc2[C@H]2CCC[C@H]21 (relative stereo) [Example 16, (3aR*,4S*,9bS*)-N-[2-(8-Cyano-2,3,3a,4,5,9b-hexahydro-1H-cyclopenta[c]quinolin-4-yl)-2-methylpropyl]-4-formylaminobenzamide]
RBA (relative binding inhibition rate, Relative Binding Affinity) [2]: 406
weight of the prostate relative to that in the sham control group [3]: about 90%
Femoral bone mineral density ([3]; 7 days per week, DEXA, right femur, Mean ± SD): 136 ± 10 mg/cm^2
Levator ani muscle weight ([3]; 7 days per week, Mean ± SD): 60 ± 6 mg/100 g body weight
Prostate weight ([3]; 7 days per week, Mean ± SD): 90 ± 24 mg/100 g body weight

C[C@]12CCC(=O)C[C@@H]1CC[C@@H]1[C@@H]2CC[C@]2(C)[C@@H](O)CC[C@@H]12 [DHT, dihydrotestosterone, reference compound]
Femoral bone mineral density ([4]; 10 mg/kg s.c. once daily): 138 ± 6 mg/cm^2
Levator ani muscle weight ([4]; 10 mg/kg s.c. once daily): 74 ± 6 mg/100 g body weight
Prostate weight ([4]; 10 mg/kg s.c. once daily): 166 ± 33 mg/100 g body weight
weight of the prostate relative to that in the sham control group ([4]; 10 mg/kg s.c.): about 175%
Femoral bone mineral density ([1]; 10 mg/kg s.c. once daily): 138 ± 6 mg/cm^2
Levator ani muscle weight ([1]; 10 mg/kg s.c. once daily): 85 ± 9 mg/100 g body weight
Prostate weight ([1]; 10 mg/kg s.c. once daily): 162 ± 27 mg/100 g body weight
weight of the prostate relative to that in the sham control group ([1]; 10 mg/kg s.c.): about 130%

CC(C)(CNC(=O)c1ccc(OC(F)(F)F)cc1)[C@H]1Nc2ccc(C#N)cc2[C@H]2CCC[C@H]21 (relative stereo) [Example 1, (3aR*,4S*,9bS*)-N-[2-(8-cyano-2,3,3a,4,5,9b-hexahydro-1H-cyclopenta[c]quinolin-4-yl)-2-methylpropyl]-4-trifluoromethoxybenzamide]
Femoral bone mineral density ([4]; 30 mg/kg s.c. once daily): 137 ± 7 mg/cm^2
Levator ani muscle weight ([4]; 30 mg/kg s.c. once daily): 60 ± 6 mg/100 g body weight
Prostate weight ([4]; 30 mg/kg s.c. once daily): 70 ± 13 mg/100 g body weight
weight of the prostate relative to that in the sham control group ([4]; 30 mg/kg s.c.): about 74%

CC(=O)Nc1ccc(C(=O)NCC(C)(C)[C@H]2Nc3ccc(C#N)cc3[C@H]3CCC[C@H]32)cn1 (relative stereo) [Example 23, (3aR*,4S*,9bS*)-6-Acetamido-N-[2-(8-cyano-2,3,3a,4,5,9b-hexahydro-1H-cyclopenta[c]quinolin-4-yl)-2-methylpropyl]nicotinamide]
RBA (relative binding inhibition rate, Relative Binding Affinity) [2]: 420
Femoral bone mineral density ([1]; 30 mg/kg s.c. once daily): 137 ± 5 mg/cm^2
Levator ani muscle weight ([1]; 30 mg/kg s.c. once daily): 72 ± 6 mg/100 g body weight
Prostate weight ([1]; 30 mg/kg s.c. once daily): 111 ± 14 mg/100 g body weight
weight of the prostate relative to that in the sham control group ([1]; 30 mg/kg s.c.): about 90%
